Test results published in paper PMC9182007, “Statistical Methods in the Study of Protein Binding and Its Relationship to Drug Bioavailability in Breast Milk” (Molecules, 2022).
Where two headings read alike, the source gives them in different places.

Experiments:
[1] = molecular target: human serum albumin (HSA) (Homo sapiens, UniProt P02768); conditions: for k HSA: Table S5, retention factor, HSA column, pH 7.4, 25 degrees Celsius
Method: High performance liquid chromatography was performed using immobilized human serum albumin column (HPLCHSA) and immobilized artificial membrane (HPLCIAM). HPLC was the source of the log k values (logarithm of retention factor), log kHSA and log kIAM.
High performance liquid chromatography was performed using a chromatography column with immobilized human serum albumin. The assay was performed on a Perkin Elmer Series 200 instrument connected to a UV-VIS spectrometer as detector. The analytical wavelength was the same for all compounds at 210 nm. […] The acetate buffer was prepared by dissolving 0.77 g of ammonium acetate in 1 L of distilled water. The pH was then adjusted with a concentrated ammonia solution using a pH meter.
The phase flow through the system was set to 0.9 mL/min as recommended by the column manufacturer. The solutions were delivered to the column using an autosampler syringe, the injection size was 10 µL. Since the column could not be thermostated, the room was kept at a constant temperature of 25 degrees Celsius.
Chromatographic data (retention coefficient, k, and derivative, log k) were obtained with TotalChrom software connected to an HPLC instrument. […] The experiment was then repeated and the collected retention rates were the mean values of both series.

plasma protein = conditions: ref DrugBank [7], cited from earlier work
[2] = molecular target: T1, bovine serum albumin (BSA) (Bos taurus, UniProt P02769); assay: RP TLC on plates impregnated with bovine serum albumin; type: binding; conditions: for RP (Rf value from the RP plate impregnated with 2 mg/mL BSA solution): Table S8, external group; for RP (Rf, BSA-impregnated RP plate): Table S4, RP plate impregnated with 2 mg/mL BSA, pH 7.4 mobile phase
T1 construct: purchased Sigma Aldrich
T1 sequence (P02769 25-607): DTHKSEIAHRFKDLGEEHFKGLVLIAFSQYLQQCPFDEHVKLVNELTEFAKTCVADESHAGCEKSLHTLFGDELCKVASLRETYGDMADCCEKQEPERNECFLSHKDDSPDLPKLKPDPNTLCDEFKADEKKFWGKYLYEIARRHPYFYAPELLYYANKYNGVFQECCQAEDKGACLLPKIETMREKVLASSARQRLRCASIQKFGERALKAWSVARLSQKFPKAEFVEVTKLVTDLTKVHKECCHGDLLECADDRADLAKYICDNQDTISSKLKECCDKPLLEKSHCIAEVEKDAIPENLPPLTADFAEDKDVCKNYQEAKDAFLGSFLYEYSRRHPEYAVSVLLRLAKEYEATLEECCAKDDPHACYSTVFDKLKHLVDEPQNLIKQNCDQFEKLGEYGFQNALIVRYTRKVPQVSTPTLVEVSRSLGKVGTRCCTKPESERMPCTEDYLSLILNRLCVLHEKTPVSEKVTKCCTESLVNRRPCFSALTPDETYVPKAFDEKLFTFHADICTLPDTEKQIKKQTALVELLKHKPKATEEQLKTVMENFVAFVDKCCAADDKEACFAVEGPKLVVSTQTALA

[3] = RP TLC on non-impregnated control plates; type: physicochemical; conditions: for CRP (Rf value from the non-impregnated RP plate, control): Table S8, external group; for CRP (Rf, control RP plate): Table S4, non-impregnated RP plate, acetonitrile/acetate buffer pH 7.4/methanol 60:20:20
Method: (§1) For TLC chromatography, glass plates 20 × 20 cm from Merck, covered with silica gel with the addition of a fluorescent indicator, were used. Normal phase (NP) plates were used with standard Merck TLC Silica gel 60 F254 plates, while in reverse phase (RP) silanized plates RP-2: Merck TLC Silica gel 60 RP-2 F254 were used.
Normal and reversed phase thin layer chromatography (NP TLC and RP TLC respectively) was performed using silica-gel-coated glass plates. Half of them were covered with 2 mg/mL bovine serum albumin solution and half remained pure.
(§2) The mobility of the compounds was also determined on the plates with no protein as a modifier. […] The acetate buffer (20 mM) was prepared by dissolving 1.54 g of ammonium acetate in 1 L of distilled water. The pH was then adjusted with a concentrated ammonia solution using a pH meter. The plates were developed in standard, vertical chromatographic chambers, each time using 100 mL of the mobile phase, after the chamber was previously saturated with solvent vapors for approximately 1 h.
(§3) The unfolded-protein-impregnated plates and the control plates were scanned with a Desaga CD 60 densitometer. The values of the delay factor (Rf) were collected, i.e., the ratio of the distance traveled by the substance to be analyzed to the distance traveled through the front of the mobile phase. […] The experiment was repeated (for both BSA-coated and control plates) and the Rf values pooled are the mean of both series of experiments.

[4] = molecular target: T1, bovine serum albumin (BSA); assay: NP TLC on plates impregnated with bovine serum albumin; type: binding; conditions: for NP (Rf, BSA-impregnated NP plate): Table S3, NP plate impregnated with 2 mg/mL BSA, pH 7.4 mobile phase; for NP (Rf value from the NP plate impregnated with 2 mg/mL BSA solution): Table S8, external group
From the text: Chromatographic descriptors were obtained in experiments, thin layer chromatography in normal (NP TLC) and reversed mode (RP TLC). The stationary phase was modified with bovine serum albumin (BSA). TLC was the source of retention factor (Rf) values, denoted in statistical models as NP and RP.
as §1
The stationary phase of the plates, both NP and RP, was modified with an aqueous solution of bovine serum albumin purchased from Sigma Aldrich (bovine serum albumin, lyophilized powder).
The impregnation of the plates was carried out with a 2 mg/mL solution applied to the surface using a Desaga SG 1 hand sprayer; the plates were then air dried. […] Normal and reversed phase thin layer chromatography (NP TLC and RP TLC respectively) was performed using silica-gel-coated glass plates. Half of them were covered with 2 mg/mL bovine serum albumin solution and half remained pure.
as §2, §3

[5] = NP TLC on non-impregnated control plates; type: physicochemical; conditions: for CNP (Rf, control NP plate): Table S3, non-impregnated NP plate, acetonitrile/acetate buffer pH 7.4/methanol 60:20:20; for CNP (Rf value from the non-impregnated NP plate, control): Table S8, external group
[6] = HPLC on immobilized artificial membrane column (HPLCIAM); type: physicochemical; conditions: for log k IAM: Table S5, IAM column, pH 7.4; for k IAM: Table S5, retention factor, IAM column, phosphate buffer pH 7.4/acetonitrile 80:20; for kIAM / log kIAM: Table S9, external group
[7] = Table S6, external group (n = 38), given as fraction
[8] = human, immobilized hsa column, pH 7.4
[9] = Table S1, plasma protein binding given as fraction

Sequence of human serum albumin (HSA) (P02768 25-609): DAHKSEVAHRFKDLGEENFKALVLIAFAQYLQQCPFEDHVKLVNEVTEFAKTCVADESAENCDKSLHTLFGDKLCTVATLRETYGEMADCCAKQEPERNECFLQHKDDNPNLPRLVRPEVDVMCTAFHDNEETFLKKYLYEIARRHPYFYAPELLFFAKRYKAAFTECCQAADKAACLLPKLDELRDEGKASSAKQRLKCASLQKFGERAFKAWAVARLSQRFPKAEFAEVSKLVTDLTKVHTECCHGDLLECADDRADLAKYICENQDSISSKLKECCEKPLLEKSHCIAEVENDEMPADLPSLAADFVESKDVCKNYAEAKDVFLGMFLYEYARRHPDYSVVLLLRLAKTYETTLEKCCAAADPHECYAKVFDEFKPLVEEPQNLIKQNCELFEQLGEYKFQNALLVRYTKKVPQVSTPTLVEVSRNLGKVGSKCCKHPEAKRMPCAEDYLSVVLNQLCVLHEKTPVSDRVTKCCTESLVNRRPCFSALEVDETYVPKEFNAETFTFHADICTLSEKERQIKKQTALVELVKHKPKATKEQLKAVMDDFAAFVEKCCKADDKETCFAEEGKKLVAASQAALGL

Structure (SMILES) | k HSA [1] | PB (plasma protein; [9]) | NP (Rf, BSA-impregnated NP plate) [4] | RP (Rf, BSA-impregnated RP plate) [2] | CRP (Rf, control RP plate) [3] | CNP (Rf, control NP plate) [5] | log k IAM [6] | k IAM [6] | log k HSA ([1]; Table S5, HSA, pH 7.4) | also measured
CC(=O)Nc1nnc(S(N)(=O)=O)s1 [acetazolamid] | – | – | – | – | – | – | – | – | – | kHSA [1]: 0.74; log kHSA [1]: -0.13; PB (plasma protein; [7]): 0.98; RP (Rf value from the RP plate impregnated with 2 mg/mL BSA solution) [2]: 0.96; CRP (Rf value from the non-impregnated RP plate, control) [3]: 0.97
COc1ccc(CCN2CCC(Nc3nc4ccccc4n3Cc3ccc(F)cc3)CC2)cc1 [astemizol] | 13.32 | 0.967 | 0.61 | 0.62 | 0.65 | 0.62 | 1.42 | 26.27 | – | log k HSA [1, 8]: 1.12
OC(CCN1CCCCC1)(c1ccccc1)C1CC2C=CC1C2 (stereo not drawn) [biperiden] | 0.58 | 0.6 | 0.65 | 0.85 | 0.87 | 0.68 | 1.62 | 41.47 | – | log k HSA [1, 8]: -0.24
CCCCCOC(=O)Nc1nc(=O)n([C@@H]2O[C@H](C)[C@@H](O)[C@H]2O)cc1F [capecitabine] | – | 0.6 | 0.92 | 0.89 | 0.90 | 0.92 | 0.04 | 1.11 | – | –
C=CCN1C[C@H](C(=O)N(CCCN(C)C)C(=O)NCC)C[C@@H]2c3cccc4[nH]cc(c34)C[C@H]21 [carbegoline] | 3.23 | 0.41 | 0.68 | 0.68 | 0.68 | 0.68 | 1.23 | 17.05 | 0.51 | –
O=C(N[C@H](CO)[C@H](O)c1ccc([N+](=O)[O-])cc1)C(Cl)Cl [chloramphenikol] | 0.61 | – | 0.97 | 0.89 | 0.89 | 0.99 | 0.03 | 1.08 | -0.21 | –
NS(=O)(=O)c1cc(C2(O)NC(=O)c3ccccc32)ccc1Cl (stereo not drawn) [chlortalidone] | 0.85 | 0.75 | 0.96 | – | – | 0.96 | 0.12 | 1.32 | – | –
CN(C)CCOC(c1ccccc1)c1ccccc1 [diphenhydramin] | 1.88 | 0.985 | 0.33 | 0.54 | 0.58 | 0.42 | 0.56 | 3.66 | 0.27 | –
C[C@]12CC[C@@H]3c4ccc(OC(=O)c5ccccc5)cc4CC[C@H]3[C@@H]1CC[C@@H]2O [estradiol benzoate] | – | 0.95 | 0.98 | 0.62 | 0.63 | 0.97 | 0.84 | 6.92 | – | –
C[C@]12CC[C@@H]3c4ccc(O)cc4CC[C@H]3[C@@H]1CCC2=O [estrone] | – | 0.95 | 0.99 | – | 0.79 | 0.99 | 1.47 | 29.40 | – | –
O=C(CCCN1CCC(O)(c2ccc(Cl)cc2)CC1)c1ccc(F)cc1 [haloperidol] | 4.8 | 0.92 | 0.65 | 0.64 | 0.61 | 0.66 | 1.38 | 23.74 | 0.68 | –
CCC1(c2ccccc2)C(=O)NCNC1=O [primidone] | – | – | – | – | – | – | – | – | – | kHSA ([1]; Table S9, external group): 0.22; log kHSA ([1]; Table S9, external group): -0.66; NP (Rf value from the NP plate impregnated with 2 mg/mL BSA solution) [4]: 0.93; RP (Rf value from the RP plate impregnated with 2 mg/mL BSA solution) [2]: 0.97; CRP (Rf value from the non-impregnated RP plate, control) [3]: 0.93; CNP (Rf value from the non-impregnated NP plate, control) [5]: 0.90; kIAM [6]: 2.02; log kIAM [6]: 0.31
CC(=O)[C@H]1CC[C@H]2[C@@H]3CCC4=CC(=O)CC[C@]4(C)[C@H]3CC[C@]12C [progesterone] | 5.7 | 0.975 | 0.96 | 0.68 | 0.71 | 0.96 | 1.54 | 34.99 | 0.76 | –
CO[C@H]1/C=C/O[C@@]2(C)Oc3c(C)c(O)c4c(O)c(c(/C=N/N5CCN(C)CC5)c(O)c4c3C2=O)NC(=O)/C(C)=C\C=C\[C@H](C)[C@H](O)[C@@H](C)[C@@H](O)[C@@H](C)[C@H](OC(C)=O)[C@@H]1C [rifampicin] | – | – | – | – | – | – | – | – | – | kHSA ([1]; Table S9, external group): 0.03; log kHSA [1, 8]: -1.53; PB (plasma protein; [7]): 0.89; NP (Rf value from the NP plate impregnated with 2 mg/mL BSA solution) [4]: 0.77; RP (Rf value from the RP plate impregnated with 2 mg/mL BSA solution) [2]: 0.94; CRP (Rf value from the non-impregnated RP plate, control) [3]: 0.95; CNP (Rf value from the non-impregnated NP plate, control) [5]: 0.73; kIAM [6]: 8.37; log kIAM [6]: 0.92
CC[C@H]1OC(=O)[C@H](C)[C@@H](O[C@H]2C[C@@](C)(OC)[C@@H](O)[C@H](C)O2)[C@H](C)[C@@H](O[C@@H]2O[C@H](C)C[C@H](N(C)C)[C@H]2O)[C@](C)(O)C[C@@H](C)/C(=N\OCOCCOC)[C@H](C)[C@@H](O)[C@]1(C)O [roxitromicin] | 1.03 | 0.96 | 0.92 | 0.79 | 0.80 | 0.91 | – | – | 0.01 | –
